Measurements: patent US20060079512A1, “Dibenzodiazepinone analogues, processes for their production and their use as pharmaceuticals” (Ecopia BioSciences, Inc., priority 2003, published 2006)
Like-named read-outs stand apart in the source and are kept apart here.

Columns and labels:
Assay type in all cases: cell-based
[1] = system: HT-29, SF-268, PC-3, MDA-MB-231; assay: Average GI50 over the four cell lines, method (a); conditions: for GI50: read-out: Average (GI50 μM); for anticancer activity compared with Compound 1: four cell lines
Description: (§1) Compounds were dissolved at 10 mM in DMSO. Dilution in vehicle to concentrations of 30, 10, 3, 1 and 0.3 μM were prepared immediately before assays. Depending on the cell line's growth characteristics, 4000-10000 cells were plated in two 96-wells pates (day 0) and incubated for 16 hours. The following day, propidium iodide was added to one of the two plates and fluorescence measured (Tz). Test compounds were added to the second plate, as well as vehicle control, and cells further incubated for 96 hours. Each compound was tested at each concentration and in triplicates. The equivalent cell number was determined after adding propidium iodide by measuring the signal by fluorescence (C for control).

[2] = system: MDA-MB-231 (mammary gland adenocarcinoma); assay: In vitro cytotoxic activity (GI50), method (a), propidium iodide; conditions: read-out: MDA-MB-231 (GI50 μM)
Description: as §1

SF268 (CNS) = assay: as above; conditions: read-out: SF-268 (GI50 μM)
Description: as §1

[3] = system: PC-3 (prostate adenocarcinoma); assay: as above; conditions: read-out: PC-3 (GI50 μM)
Description: as §1

[4] = system: HT-29 (colorectal carcinoma); assay: as above; conditions: read-out: HT-29 (GI50 μM)
Description: as §1

[5] = method (a), values > 30 not considered
[6] = Homo sapiens, MDA-MB-231, method (a), 96 hours
[7] = Homo sapiens, SF-268, method (a), 96 hours
[8] = Homo sapiens, HT-29, method (a), 96 hours

SMILES | GI50 [1, 5] | GI50 [2, 6] | GI50 (SF268 (CNS); [7]) | GI50 ([3]; method (a), 96 hours) | GI50 [4, 8] | GI50 [1] | GI50 ([2]; Homo sapiens, MDA-MB-231, 96 h) | GI50 (SF268 (CNS); Homo sapiens, SF-268, 96 h) | GI50 ([3]; 96 h) | GI50 ([4]; Homo sapiens, HT-29, 96 h) | anticancer activity compared with Compound 1 ([1]; method (a)) | GI50 ([2]; method (a), 96 hours) | GI50 (SF268 (CNS); method (a), 96 hours) | GI50 ([4]; method (a), 96 hours)
COc1cc(OC)c2c(c1)N(C/C=C(\C)CC/C=C(\C)CCC=C(C)C)C(=O)c1cccc(O)c1N2 [Compound 6, 10-farnesyl-4-hydroxy-6,8-dimethoxy-5,10-dihydro-dibenzo[b,e][1,4]diazepin-11-one] | 20.8 µM | 24.6 µM | 18.9 µM | 19 µM | > 30 µM |  |  |  |  |  |  |  |  | 
CC(=O)Oc1cc(OC(C)=O)c2c(c1)N(CC=C(C)CCC=C(C)CCC=C(C)C)C(=O)c1cccc(O)c1N2 [Compound 9, 6,8-diacetoxy-10-farnesyl-4-hydroxy-5,10-dihydro-dibenzo[b,e][1,4]diazepin-11-one] |  |  |  |  |  | 4.6 µM | 2.48 µM | 1.88 µM | 1.44 µM | 12.6 µM |  |  |  | 
CC(=O)Oc1cccc2c1Nc1c(OC(C)=O)cc(O)cc1N(CC=C(C)CCC=C(C)CCC=C(C)C)C2=O [Compound 10, 4,6-diacetoxy-10-farnesyl-8-hydroxy-5,10-dihydro-dibenzo[b,e][1,4]diazepin-11-one] |  |  |  |  |  | 4.48 µM | 1.55 µM | 2.02 µM | 1.35 µM | 13 µM |  |  |  | 
CC(=O)Oc1cc(O)c2c(c1)N(CC=C(C)CCC=C(C)CCC=C(C)C)C(=O)c1cccc(OC(C)=O)c1N2 [Compound 11, 4,8-diacetoxy-10-farnesyl-6-hydroxy-5,10-dihydro-dibenzo[b,e][1,4]diazepin-11-one] |  |  |  |  |  | 8.72 µM | 7.72 µM | 5.79 µM | 5.35 µM | 16 µM |  |  |  | 
CC(=O)Oc1cc(OC(C)=O)c2c(c1)N(CC=C(C)CCC=C(C)CCC=C(C)C)C(=O)c1cccc(OC(C)=O)c1N2 [Compound 12, 4,6,8-triacetoxy-10-farnesyl-5,10-dihydro-dibenzo[b,e][1,4]diazepin-i 1-one] | 3.82 µM |  |  | 1.2 µM |  |  |  |  |  |  | generally more active than Compound 1 | 2.79 µM | 1.95 µM | 9.33 µM
CC(C)CCCC(C)CCCC(C)CCN1C(=O)c2cccc(O)c2Nc2c(O)cc(O)cc21 (stereo not shown) [Compound 46, 10-(3,7,11-trimethyldodecyl)-4,6,8-trihydroxy-5,10-dihydro-dibenzo[b,e][1,4]diazepin-11-one] | 1.62 µM | 0.59 µM | 0.72 µM | 0.9 µM | 4.26 µM |  |  |  |  |  | generally more active than Compound 1 |  |  | 

More lines, main results first:

GI50 [1, 5] | SMILES | GI50 [2, 6] | GI50 (SF268 (CNS); [7]) | GI50 ([3]; method (a), 96 hours) | GI50 [4, 8] | GI50 [1] | GI50 ([2]; Homo sapiens, MDA-MB-231, 96 h) | GI50 (SF268 (CNS); Homo sapiens, SF-268, 96 h) | GI50 ([3]; 96 h) | GI50 ([4]; Homo sapiens, HT-29, 96 h) | anticancer activity compared with Compound 1 ([1]; method (a)) | GI50 ([2]; method (a), 96 hours) | GI50 (SF268 (CNS); method (a), 96 hours) | GI50 ([4]; method (a), 96 hours)
6.18 µM | CC(C)=CCC/C(C)=C/CC/C(C)=C/CN1C(=O)c2cccc(O)c2N(Cc2ccccc2)c2c(O)cc(O)cc21 [Compound 3, 5-benzyl-10-farnesyl-4,6,8-trihydroxy-5,10-dihydro-dibenzo[b,e][1,4]diazepin-11-one] | 6.32 µM | 5.73 µM | 5.36 µM | 7.3 µM |  |  |  |  |  |  |  |  | 
9.2 µM | COc1cccc2c1Nc1c(O)cc(O)cc1N(C/C=C(\C)CC/C=C(\C)CCC=C(C)C)C2=O [Compound 4, 10-farnesyl-6,8-dihydroxy-4-methoxy-5,10-dihydro-dibenzo[b,e][1,4]diazepin-11-one] | 11.3 µM | 4.97 µM | 5.86 µM | 14.7 µM |  |  |  |  |  |  |  |  | 
16 µM | COc1cc(O)cc2c1Nc1c(O)cccc1C(=O)N2C/C=C(\C)CC/C=C(\C)CCC=C(C)C [Compound 5, 10-farnesyl-4,8-dihydroxy-6-methoxy-5,10-dihydro-dibenzo[b,e][1,4]diazepin-11-one] | 20.5 µM | 13.4 µM | 15.6 µM | 14.4 µM |  |  |  |  |  |  |  |  | 
16.1 µM | COc1cccc2c1Nc1c(OC)cc(O)cc1N(CC=C(C)CCC=C(C)CCC=C(C)C)C2=O [Compound 7, 10-farnesyl-8-hydroxy-4,6-dimethoxy-5,10-dihydro-dibenzo[b,e][1,4]diazepin-11-one] | 17.4 µM | 18.5 µM | 14.6 µM | 14.1 µM |  |  |  |  |  |  |  |  | 
